The text below walks through data of article PMC9809337, “Discovery of HCD3514 as a potent EGFR inhibitor against C797S mutation in vitro and in vivo” (Journal of Cancer, 2023).

Where two headings read alike, the source gives them in different places. A value given as a limit tells only on which side of the number the result lay.

Series [1] deals with BaF3-EGFR^19del/T790M/C797S mouse xenograft tumors. The class given is in vivo. The conditions noted are these: for phosphorylation of EGFR and Erk in tumors (Western blot): tumor tissues collected 2 h after last treatment. Here is the method: Western blotting was performed as described previously. Cells were collected by trypsin and then lysed with SDS lysis buffer. Tumor tissues were homogenized in RIPA buffer on ice, followed by centrifugation at 12,000 x g for 30 min.
Mice were sacrificed and tumors were harvested for Western blot analysis. All animal study was approved by the Institutional Animal Care and Use Committee of the Shanghai Institute of Materia Medica and strictly performed according to the institutional ethical guidelines on animal care.
Background: Immunoblotting shows a protein as a band on a membrane.

Series [2] concerns EGFR phosphorylation in triple mutant BaF3 cells and PC-9-OR cells. The experiment in a line: Western blot of EGFR phosphorylation in EGFR^C797S triple mutant cells. Format: cell-based. Conditions: treated 2 h.
The test system of series [3] is BaF3-EGFR^L858R/T790M/C797S cells. As to the kind of experiment: Cell proliferation assay (CCK8/SRB). The conditions noted are these: Ba/F3 EGFR-L858R, 72 h, read-out: IC50, antiproliferation activity.
In series [4] the test system is BaF3-EGFR^19del/T790M/C797S cells. As to the kind of experiment: Cell proliferation assay (CCK8/SRB). Conditions: 72 h, read-out: IC50, antiproliferation activity.
The next series relates to BaF3 parental cells. As to the kind of experiment: Cell proliferation assay (CCK8/SRB). The conditions noted are these: Mus musculus, BaF3, 72 h, read-out: IC50, antiproliferation activity.
Series [5] relates to PC-9-OR cells. As to the kind of experiment: Cell proliferation assay (CCK8/SRB). Conditions: PC9-OR, 72 h, read-out: IC50, antiproliferation activity.
Series [6] deals with BaF3-EGFR^L858R/T790M cells. The experiment in a line: Cell proliferation assay (CCK8/SRB). Conditions: Ba/F3 EGFR-L858R, 72 h, read-out: IC50, antiproliferation activity.
Series [7] concerns BaF3-EGFR^19del/T790M cells. As to the kind of experiment: Cell proliferation assay (CCK8/SRB). Conditions: 72 h, read-out: IC50, antiproliferation activity.
A further series deals with NCI-H1975 cells. As to the kind of experiment: Cell proliferation assay (CCK8/SRB). The conditions noted are these: Homo sapiens, NCI-H1975, 72 h, read-out: IC50, antiproliferation activity.
The target of the next series is EGFR^L858R/T790M/C797S (Homo sapiens, UniProt P00533, C797S/L858R/T790M). As to the kind of experiment: In vitro kinase assay (ELISA). The class given is biochemical. Conditions: mean ± SD of three independent experiments, read-out: IC50, kinase inhibitory activity against EGFR^L858R/T790M/C797S. A general note: An ELISA detects its analyte on a solid surface through an enzyme-linked reagent.
Sequence of EGFR^L858R/T790M/C797S (P00533 712-979 T790M/C797S/L858R limits assumed): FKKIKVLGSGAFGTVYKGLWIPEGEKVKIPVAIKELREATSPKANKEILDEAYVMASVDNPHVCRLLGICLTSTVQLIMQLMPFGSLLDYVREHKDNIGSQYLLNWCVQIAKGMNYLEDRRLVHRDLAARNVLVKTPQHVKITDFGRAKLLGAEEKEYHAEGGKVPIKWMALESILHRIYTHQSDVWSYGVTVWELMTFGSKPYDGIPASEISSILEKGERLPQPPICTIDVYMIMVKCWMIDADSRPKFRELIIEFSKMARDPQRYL

Another series addresses EGFR^19del/T790M/C797S (Homo sapiens, UniProt P00533, C797S/DEL746-750/T790M). The experiment in a line: In vitro kinase assay (ELISA). Format: biochemical. Conditions: mean ± SD of three independent experiments, read-out: IC50, kinase inhibitory activity against EGFR^19del/T790M/C797S.
The target of the next series is EGFR^L858R/T790M (Homo sapiens, UniProt P00533, L858R/T790M). The experiment in a line: In vitro kinase assay (ELISA). The conditions noted are these: mean ± SD of three independent experiments, read-out: IC50, kinase inhibitory activity against EGFR^L858R/T790M. The class given is biochemical.
Sequence of EGFR^L858R/T790M (P00533 712-979 T790M/L858R limits assumed): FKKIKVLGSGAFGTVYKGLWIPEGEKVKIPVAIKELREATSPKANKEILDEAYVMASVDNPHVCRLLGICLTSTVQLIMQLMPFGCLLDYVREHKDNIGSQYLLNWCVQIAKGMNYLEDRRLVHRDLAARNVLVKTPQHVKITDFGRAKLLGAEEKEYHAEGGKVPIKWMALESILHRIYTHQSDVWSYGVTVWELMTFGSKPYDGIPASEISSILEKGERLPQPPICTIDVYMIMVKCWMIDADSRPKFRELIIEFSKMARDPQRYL
In a further series the target is EGFR^19del/T790M (Homo sapiens, UniProt P00533, DEL746-750/T790M). As to the kind of experiment: In vitro kinase assay (ELISA). The class given is biochemical. The conditions noted are these: mean ± SD of three independent experiments, read-out: IC50, kinase inhibitory activity against EGFR^19del/T790M.
Sequence of EGFR^19del/T790M (P00533 with tags, fused parts or gaps DEL746-750/T790M limits assumed): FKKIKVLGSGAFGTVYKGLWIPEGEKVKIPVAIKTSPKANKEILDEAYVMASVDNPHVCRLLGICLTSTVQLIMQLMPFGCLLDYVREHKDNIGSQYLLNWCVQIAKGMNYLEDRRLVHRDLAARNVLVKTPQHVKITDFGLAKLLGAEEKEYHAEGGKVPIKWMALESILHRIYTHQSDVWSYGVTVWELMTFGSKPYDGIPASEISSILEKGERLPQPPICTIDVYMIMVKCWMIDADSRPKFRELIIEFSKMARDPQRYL
Series [8] concerns BaF3-EGFR^L858R/T790M/C797S cells. The experiment in a line: Cell apoptosis analysis (Annexin V-FITC, flow cytometry). The class given is cell-based. Conditions: 48 h. The procedure:
(§1) Then cells were collected and washed with PBS and measured by Annexin V-FITC Apoptosis detection kit (cat. no. A211-02, Vazyme Biotechnology). Signals were measured using FACS Calibur flow cytometer, and FlowJo software was used to analyze the data.

Series [9] concerns EGFR phosphorylation in BaF3-EGFR^L858R/T790M, BaF3-EGFR^19del/T790M and NCI-H1975 cells. The experiment in a line: Western blot of EGFR phosphorylation in EGFR^T790M double mutant cells. Format: cell-based. Conditions: treated 2 h. Here is the method: (§2) Western blotting was performed as described previously. Cells were collected by trypsin and then lysed with SDS lysis buffer. Tumor tissues were homogenized in RIPA buffer on ice, followed by centrifugation at 12,000 x g for 30 min. The concentration of protein was measured with BCA protein assay kit (cat. no. 23227, Thermo Fisher Scientific). After heating at 100 °C for 15 min, protein samples were separated on 8-12% SDS-PAGE gels, and then transferred to nitrocellulose membranes (Life Technologies). Membranes were blocked in 5% nonfat milk-TBST and immunoblotted with primary antibodies against phospho-EGFR (Tyr1068; dilution, 1:500; cat. no. 2234L, CST), EGFR (dilution, 1:1000; cat. no. 4267S, CST), PARP (dilution, 1:1000; cat. no. 9542S, CST), caspase-3 (dilution, 1:1000; cat. no. 9662S, CST), cleaved caspase-3 (dilution, 1:1000; cat. no. 9664S, CST), phospho-Erk (Thr202/Tyr204; dilution, 1:1000; cat. no. 4370S, CST), Erk (dilution, 1:1000; cat. no. 4695S, CST) and β-actin (dilution, 1:20000; cat. no. 60008-1-Ig, Proteintech) at 4 °C overnight and then incubated with secondary antibodies (cat. no. 111-035-003, Jackson).

Series [10] deals with cleaved caspase-3 and cleaved PARP in triple mutant BaF3 and PC-9-OR cells. As to the kind of experiment: Western blot of apoptosis-related proteins. The class given is cell-based. The procedure:
as §2

Series [11] addresses EGFR^WT (Homo sapiens, UniProt P00533). The experiment in a line: In vitro kinase assay (ELISA).
In series [12] the test system is EGFR^WT. The experiment in a line: In vitro kinase assay (ELISA). Conditions: EGFR^C797S triple mutants versus EGFR^WT, kinase IC50.
The test system of another series is MRC-9 cells. As to the kind of experiment: Cell proliferation assay (CCK8/SRB). The conditions noted are these: Homo sapiens, MRC9, 72 h, read-out: IC50, antiproliferative activity.
For a further series, the system named is GSE-1 cells. The experiment in a line: Cell proliferation assay (CCK8/SRB). Conditions: Homo sapiens, 72 h, read-out: IC50, antiproliferative activity.
Series [13] deals with BaF3-EGFR^19del/T790M/C797S cells. The experiment in a line: Cell apoptosis analysis (Annexin V-FITC, flow cytometry). Format: cell-based. The conditions noted are these: 3 μM, 48 h. The procedure:
as §1
For orientation: A flow cytometer gives signals particle by particle.

For series [14], the system named is PC-9-OR cells. The description is as above. Format: cell-based. Conditions: 3 μM, 48 h. The procedure: as §1
The mark [15] stands for this setting: triple mutant BaF3 cells and PC-9-OR cells.

Sequence of EGFR^WT (Homo sapiens, UniProt P00533) (P00533 712-979 limits assumed): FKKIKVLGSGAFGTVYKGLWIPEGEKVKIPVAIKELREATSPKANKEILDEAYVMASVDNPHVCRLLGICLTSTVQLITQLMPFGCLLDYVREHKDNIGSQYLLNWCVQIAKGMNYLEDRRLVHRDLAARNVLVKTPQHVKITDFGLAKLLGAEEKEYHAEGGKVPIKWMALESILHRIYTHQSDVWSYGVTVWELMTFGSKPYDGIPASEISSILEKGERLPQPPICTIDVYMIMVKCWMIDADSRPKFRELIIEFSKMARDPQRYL
Sequence of EGFR^19del/T790M/C797S (P00533 with tags, fused parts or gaps DEL746-750/T790M/C797S limits assumed): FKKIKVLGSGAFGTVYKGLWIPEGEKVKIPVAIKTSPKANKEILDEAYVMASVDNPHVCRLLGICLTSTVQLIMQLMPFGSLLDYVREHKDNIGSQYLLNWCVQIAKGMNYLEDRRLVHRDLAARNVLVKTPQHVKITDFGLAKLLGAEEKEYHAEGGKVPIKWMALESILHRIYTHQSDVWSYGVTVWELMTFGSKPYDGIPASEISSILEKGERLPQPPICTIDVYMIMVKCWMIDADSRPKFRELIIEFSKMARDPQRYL

Take `C=CC(=O)Nc1cc(Nc2nccc(-c3cn(C)c4ccccc34)n2)c(OC)cc1N(C)CCN(C)C` [AZD9291, Osimertinib, reference compound]: the “reduction of tumor growth compared to vehicle” value in [1] (25 mg/kg, oral, once a day, BALB/c nude mice) is listed as “did not show significant reduction of tumor growth”. Besides, the “phosphorylation of EGFR and Erk in tumors (Western blot)” value in [1] is “no obvious inhibitory activities of EGFR and Erk”. Further, the “EGFR phosphorylation (Western blot)” value in series [2] (1 μM, all three EGFR^C797S triple mutant cells) was “failed to suppress”. For the same molecule, the IC50 in series [3] was 5.5 ± 0.33 µM; in [4], 5.93 ± 0.78 µM; with BaF3 parental cells, 3.52 ± 0.92 µM; in the series on PC-9-OR cells [5], 6.3 µM; in series [6] it was […]; in series [7], […]. Besides, the IC50 in the series on NCI-H1975 cells is […].
Consider `CCS(=O)(=O)n1cc(-c2nc(Nc3ccc(N4CCC(N5CCN(C)CC5)CC4)c(OC(C)C)c3)ncc2Cl)c2ccccc21` [HCD3514], for which the IC50 came out at 0.001 µM on EGFR^L858R/T790M/C797S; 0.002 µM at EGFR^19del/T790M/C797S; 0.0049 µM on EGFR^L858R/T790M; 0.0089 µM on EGFR^19del/T790M; 0.156 ± 0.0069 µM against EGFR^WT [11]; 0.35 µM in [3]. In addition, the IC50 stood at 0.25 µM in [4]; 1.31 µM in the series with BaF3 parental cells; 0.48 µM with PC-9-OR cells [5]; 1.03 µM in the series with MRC-9 cells; 1.04 µM in the series with GSE-1 cells; 0.66 µM in series [6]. Moreover, the results for the IC50 (in series [7]; in the series with NCI-H1975 cells) were 0.52 µM and 0.49 µM, respectively. Besides, the apoptosis rate was 72.39% in series [8] (1 μM) and 98.27% in series [8] (3 μM). Further, the “tumor growth inhibition (TGI)” value amounted to 22.53% in series [1] (50 mg/kg, oral, once a day, BALB/c nude mice) and 37.73% in series [1] (75 mg/kg, oral, once a day, BALB/c nude mice). Moreover, in series [1] (50 and 75 mg/kg, oral, once a day, BALB/c nude mice), the “tolerability, body weight throughout the study” value is listed as “well-tolerated, with body weight maintained throughout the study”. In [1] (50 and 75 mg/kg, tumors harvested 2 h after last oral administration), the tumor weight entry is recorded as “reduced with the increased concentration”. The “phosphorylation of EGFR and Erk in tumors (Western blot)” value in [1] is “decreased phosphorylation of EGFR and the downstream signaling phosphorylation of Erk level”. Also, the “EGFR phosphorylation (Western blot)” value in series [2] (setting [15]) was “potently and dose-dependently suppressed”; in series [9] (BaF3-EGFR^L858R/T790M and BaF3-EGFR^19del/T790M cells) it was “dose-dependently suppressed”. Moreover, the “expression of phospho-EGFR (Western blot)” value in series [9] (NCI-H1975 cells) was “down-regulated”. The “expression of cleaved caspase-3 and cleaved PARP (Western blot)” value in series [10] is “dose-dependently up-regulated”. Moreover, the “selectivity over EGFR^WT” value in the series with EGFR^WT [12] was “more than 78 fold”.
In the case of `COc1cc(N2CCC(N3CCN(C)CC3)CC2)ccc1Nc1ncc(Cl)c(Nc2ccccc2P(C)(C)=O)n1` [brigatinib], the apoptosis rate result (in series [13]; in series [8] (3 μM); with PC-9-OR cells [14]) was “around 80%” each time. In addition, the “EGFR phosphorylation (Western blot)” value in [2] (setting [15]) is “significantly reduced”. The IC50 was 0.61 ± 0.21 µM in series [3], 0.31 ± 0.09 µM in series [4], 4.72 ± 2.15 µM in the series on BaF3 parental cells and 0.4 µM in the series with PC-9-OR cells [5].
